Source: ChEMBL document CHEMBL5055659, “Photosensitive and Photoswitchable TRPA1 Agonists Optically Control Pain through Channel Desensitization” (J Med Chem, 2021)
Active and inactive are the calls of the source. The rule behind the calls is not given here.

Assays:
[1] = target: T1, Transient receptor potential cation channel subfamily A member 1 (Homo sapiens, UniProt O75762); test: Agonist activity at human TRPA1 expressed in HEK293 cells assessed as induction of Ca2+ influx at 10 uM measured under 365 nm UV irradiation by Fluo-8 based calcium imaging assay; format: cell-based; details: filed as agonist
[2] = target: T1, Transient receptor potential cation channel subfamily A member 1; test: Agonist activity at human TRPA1 expressed in HEK293 cells assessed as induction of Ca2+ influx at 10 uM measured under dark by Fluo-8 based calcium imaging assay; format: cell-based
[3] = species: Mus musculus; test: Antinociceptive activity against capsaicin-induced […] knock-out C57BL/6J mouse left check pain model assessed as reduction in frequency of wiping within 10 mins at 1 mM smeared on left check followed by exposed to 365 nm UV light; format: functional, organism-based
[4] = system: HEK293; test: Induction of Ca2+ influx in TRPA1 untransfected HEK293 cells at 10 uM measured under 365 nm UV irradiation by Fluo-8 based calcium imaging assay; format: functional, cell-based; details: Homo sapiens
[5] = species: Mus musculus; test: Antinociceptive activity against capsaicin-induced wild type C57BL/6J mouse left check pain model assessed as reduction in frequency of wiping within 10 mins at 1 mM smeared on left check followed by exposed to 365 nm UV light; format: functional, organism-based
[6] = species: Mus musculus; test: Antinociceptive activity against capsaicin-induced wild type C57BL/6J mouse left check pain model assessed as reduction in frequency of wiping within 10 mins at 1 mM smeared on left check; format: functional, organism-based
[7] = Drug metabolism in bath solution assessed as photochemical switch by measuring cis-isoform at 50 uM measured after exposure to 365 nm UV irradiation by HPLC analysis; format: physicochemical
[8] = Drug metabolism in bath solution assessed as photochemical switch by measuring trans-isoform reversal at 50 uM measured after exposure to 415 nm UV irradiation by HPLC analysis; format: physicochemical
[9] = target: T2, Transient receptor potential cation channel subfamily V member 3 (Homo sapiens) (UniProt Q8NET8); test: Effect on TRPV3 (unknown origin) transfected in CHO cells assessed as activation of channel current in presence of 365 nm UV irradiation by whole-cell patch clamp electrophysiology; format: cell-based
T2 sequence (whole entry): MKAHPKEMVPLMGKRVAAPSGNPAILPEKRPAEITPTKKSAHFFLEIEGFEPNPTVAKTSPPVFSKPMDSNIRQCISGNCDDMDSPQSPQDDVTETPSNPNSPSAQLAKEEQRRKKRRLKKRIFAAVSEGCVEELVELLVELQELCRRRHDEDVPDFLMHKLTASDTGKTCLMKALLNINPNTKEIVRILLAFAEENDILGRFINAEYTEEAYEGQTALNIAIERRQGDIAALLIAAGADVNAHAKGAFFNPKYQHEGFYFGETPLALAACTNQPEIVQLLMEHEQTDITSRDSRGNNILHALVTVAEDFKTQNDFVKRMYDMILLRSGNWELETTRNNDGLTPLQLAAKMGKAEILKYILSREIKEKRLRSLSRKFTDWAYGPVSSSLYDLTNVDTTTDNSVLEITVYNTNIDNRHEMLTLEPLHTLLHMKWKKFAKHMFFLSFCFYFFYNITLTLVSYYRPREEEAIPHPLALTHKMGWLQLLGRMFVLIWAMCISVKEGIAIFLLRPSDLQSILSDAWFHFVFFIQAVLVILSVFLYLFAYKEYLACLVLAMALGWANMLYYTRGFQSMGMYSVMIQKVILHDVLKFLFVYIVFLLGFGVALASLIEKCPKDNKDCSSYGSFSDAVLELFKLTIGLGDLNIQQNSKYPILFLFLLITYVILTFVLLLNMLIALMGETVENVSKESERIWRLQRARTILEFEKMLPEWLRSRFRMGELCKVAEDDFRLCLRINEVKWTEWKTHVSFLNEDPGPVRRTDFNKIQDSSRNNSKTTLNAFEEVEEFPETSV

[10] = target: Sodium channel protein type 5 subunit alpha (Homo sapiens, UniProt Q14524); test: Effect on Nav1.5 (unknown origin) transfected in CHO cells assessed as activation of channel current in presence of 365 nm UV irradiation by whole-cell patch clamp electrophysiology; format: cell-based
[11] = Photostability of the compound in bath solution by measuring reversible photo-isomerism measured after exposure to 365 to 530 nm UV irradiation by UV spectra; format: physicochemical
[12] = target: Transient receptor potential cation channel subfamily A member 1 (Mus musculus) (UniProt Q8BLA8); test: In vivo induction of TRPA1 channel desensitization in capsaicin-induced wild type C57BL/6J mouse left check pain model assessed as macroscopic current desensitization at 300 uM treated 11 consecutive repeat measured after exposed to 365 nm UV light; format: functional, organism-based
[13] = Drug metabolism in cell external solution assessed as thermal isomerization by measuring half life at 50 uM at 25 degC by UV-vis spectroscopy; format: ADME
[14] = target: Transient receptor potential cation channel subfamily V member 4 (Homo sapiens) (UniProt Q9HBA0); test: Effect on TRPV4 (unknown origin) transfected in CHO cells assessed as activation of channel current in presence of 365 nm UV irradiation by whole-cell patch clamp electrophysiology; format: cell-based
[15] = target: Sodium channel protein type 4 subunit alpha (Homo sapiens) (UniProt P35499); test: Effect on Nav1.4 (unknown origin) transfected in CHO cells assessed as activation of channel current in presence of 365 nm UV irradiation by whole-cell patch clamp electrophysiology; format: cell-based
[16] = Drug metabolism in cyclohexane assessed as thermal isomerization by measuring half life at 50 uM at 25 degC by UV-vis spectroscopy; format: physicochemical
[17] = target: T1, Transient receptor potential cation channel subfamily A member 1; test: Inhibition of fluorescent probe A1CA binding to TRPA1 (unknown origin) expressed in CHO cells assessed as decrease in fluorescent intensity at 10 uM incubated for 2 mins by confocal fluorescence microscopy; format: cell-based
[18] = target: T1, Transient receptor potential cation channel subfamily A member 1; test: Agonist activity at TRPA1 expressed in CHO cells assessed as activation of channel current in presence of 330 - 380 nm UV irradiation by whole-cell patch clamp electrophysiology; format: cell-based
[19] = target: T1, Transient receptor potential cation channel subfamily A member 1; test: Agonist activity at TRPA1 expressed in CHO cells assessed as reversal of activated channel current in presence of 410 - 420 nm UV irradiation at 100 uM by whole-cell patch clamp electrophysiology; format: cell-based
[20] = target: T1, Transient receptor potential cation channel subfamily A member 1; test: Agonist activity at human TRPA1 expressed in HEK293 cells assessed as induction of Ca2+ influx at 300 uM measured under 365 nm UV irradiation by Fluo-8 based calcium imaging assay; format: cell-based; details: filed as agonist

T1 sequence (O75762 whole entry): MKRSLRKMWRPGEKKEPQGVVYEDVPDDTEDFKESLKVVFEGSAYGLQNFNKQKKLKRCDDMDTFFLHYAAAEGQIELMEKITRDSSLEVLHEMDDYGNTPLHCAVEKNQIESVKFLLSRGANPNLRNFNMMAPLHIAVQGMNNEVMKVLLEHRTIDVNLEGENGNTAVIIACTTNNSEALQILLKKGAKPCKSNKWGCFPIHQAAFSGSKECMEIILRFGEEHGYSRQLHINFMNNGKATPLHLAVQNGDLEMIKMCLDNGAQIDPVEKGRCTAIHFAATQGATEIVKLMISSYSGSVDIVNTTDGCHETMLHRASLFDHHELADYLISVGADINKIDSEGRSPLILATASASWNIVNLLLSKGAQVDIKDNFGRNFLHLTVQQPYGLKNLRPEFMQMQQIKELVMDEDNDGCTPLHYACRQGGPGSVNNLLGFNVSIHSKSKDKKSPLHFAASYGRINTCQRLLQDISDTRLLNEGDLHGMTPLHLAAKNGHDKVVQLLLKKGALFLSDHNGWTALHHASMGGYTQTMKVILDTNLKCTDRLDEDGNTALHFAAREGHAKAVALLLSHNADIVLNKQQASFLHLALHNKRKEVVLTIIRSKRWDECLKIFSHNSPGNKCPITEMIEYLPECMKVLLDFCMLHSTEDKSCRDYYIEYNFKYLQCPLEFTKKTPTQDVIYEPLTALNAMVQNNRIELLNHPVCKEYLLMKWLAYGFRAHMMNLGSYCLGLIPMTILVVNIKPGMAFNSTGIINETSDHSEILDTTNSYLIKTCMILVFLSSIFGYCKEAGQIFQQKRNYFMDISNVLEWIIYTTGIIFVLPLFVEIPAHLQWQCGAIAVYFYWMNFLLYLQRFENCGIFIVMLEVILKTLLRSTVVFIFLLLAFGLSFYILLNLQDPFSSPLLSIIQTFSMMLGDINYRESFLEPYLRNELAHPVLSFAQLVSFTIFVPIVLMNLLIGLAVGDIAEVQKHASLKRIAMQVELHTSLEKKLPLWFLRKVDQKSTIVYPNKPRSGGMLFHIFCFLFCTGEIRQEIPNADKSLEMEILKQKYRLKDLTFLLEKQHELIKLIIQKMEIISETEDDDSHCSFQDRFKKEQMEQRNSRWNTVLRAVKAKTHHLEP
Sequence of Sodium channel protein type 5 subunit alpha (Q14524 whole entry): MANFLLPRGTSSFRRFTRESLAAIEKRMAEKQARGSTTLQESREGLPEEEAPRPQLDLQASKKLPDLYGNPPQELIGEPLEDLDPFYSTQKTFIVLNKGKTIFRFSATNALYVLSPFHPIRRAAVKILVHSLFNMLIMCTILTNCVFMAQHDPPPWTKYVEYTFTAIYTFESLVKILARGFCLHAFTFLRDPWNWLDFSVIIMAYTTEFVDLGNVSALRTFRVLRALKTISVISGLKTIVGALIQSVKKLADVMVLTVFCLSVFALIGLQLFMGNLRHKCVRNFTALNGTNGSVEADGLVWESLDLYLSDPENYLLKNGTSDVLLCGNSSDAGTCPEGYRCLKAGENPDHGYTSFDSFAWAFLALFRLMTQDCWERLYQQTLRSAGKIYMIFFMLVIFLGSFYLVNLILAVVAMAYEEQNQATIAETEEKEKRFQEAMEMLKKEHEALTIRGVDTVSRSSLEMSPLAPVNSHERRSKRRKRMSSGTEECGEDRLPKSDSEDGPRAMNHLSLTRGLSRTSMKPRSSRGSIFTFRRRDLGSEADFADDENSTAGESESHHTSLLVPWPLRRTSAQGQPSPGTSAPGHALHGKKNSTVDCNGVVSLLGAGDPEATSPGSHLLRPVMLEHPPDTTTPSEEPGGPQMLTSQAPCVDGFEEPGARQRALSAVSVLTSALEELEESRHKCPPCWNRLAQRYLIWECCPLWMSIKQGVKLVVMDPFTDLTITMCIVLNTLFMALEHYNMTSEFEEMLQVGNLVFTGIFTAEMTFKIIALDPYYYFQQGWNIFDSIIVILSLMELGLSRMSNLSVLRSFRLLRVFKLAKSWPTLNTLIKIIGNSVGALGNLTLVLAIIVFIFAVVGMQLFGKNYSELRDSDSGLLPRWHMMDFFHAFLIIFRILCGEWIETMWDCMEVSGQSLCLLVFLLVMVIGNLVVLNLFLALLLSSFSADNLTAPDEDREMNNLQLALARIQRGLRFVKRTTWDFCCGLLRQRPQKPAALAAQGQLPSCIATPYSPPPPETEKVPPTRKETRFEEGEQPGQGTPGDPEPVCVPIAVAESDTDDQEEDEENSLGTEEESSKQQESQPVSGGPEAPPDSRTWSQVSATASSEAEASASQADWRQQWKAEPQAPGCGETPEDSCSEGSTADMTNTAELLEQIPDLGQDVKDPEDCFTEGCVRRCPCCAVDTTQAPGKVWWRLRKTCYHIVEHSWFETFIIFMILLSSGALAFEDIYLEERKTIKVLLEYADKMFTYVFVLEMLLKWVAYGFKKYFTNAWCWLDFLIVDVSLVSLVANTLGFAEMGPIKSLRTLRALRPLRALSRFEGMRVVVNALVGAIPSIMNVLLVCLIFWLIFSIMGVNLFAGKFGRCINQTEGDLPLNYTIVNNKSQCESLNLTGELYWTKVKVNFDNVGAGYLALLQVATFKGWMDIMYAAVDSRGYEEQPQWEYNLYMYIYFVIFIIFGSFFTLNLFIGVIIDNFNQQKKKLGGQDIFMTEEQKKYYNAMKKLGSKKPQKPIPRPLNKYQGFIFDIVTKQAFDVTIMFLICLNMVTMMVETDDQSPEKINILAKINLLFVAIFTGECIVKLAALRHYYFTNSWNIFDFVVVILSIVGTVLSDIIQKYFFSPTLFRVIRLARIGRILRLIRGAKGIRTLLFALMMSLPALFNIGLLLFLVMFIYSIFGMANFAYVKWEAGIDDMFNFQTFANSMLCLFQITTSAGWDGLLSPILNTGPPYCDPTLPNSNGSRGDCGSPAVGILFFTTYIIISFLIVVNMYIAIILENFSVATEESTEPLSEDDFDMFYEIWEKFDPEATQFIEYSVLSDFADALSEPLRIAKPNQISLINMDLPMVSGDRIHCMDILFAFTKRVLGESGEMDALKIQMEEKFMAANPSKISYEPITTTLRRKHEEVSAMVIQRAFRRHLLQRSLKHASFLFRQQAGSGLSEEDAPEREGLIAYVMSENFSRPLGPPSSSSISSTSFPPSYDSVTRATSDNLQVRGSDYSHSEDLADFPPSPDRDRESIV
Sequence of Transient receptor potential cation channel subfamily V member 4 (Homo sapiens) (Q9HBA0 whole entry): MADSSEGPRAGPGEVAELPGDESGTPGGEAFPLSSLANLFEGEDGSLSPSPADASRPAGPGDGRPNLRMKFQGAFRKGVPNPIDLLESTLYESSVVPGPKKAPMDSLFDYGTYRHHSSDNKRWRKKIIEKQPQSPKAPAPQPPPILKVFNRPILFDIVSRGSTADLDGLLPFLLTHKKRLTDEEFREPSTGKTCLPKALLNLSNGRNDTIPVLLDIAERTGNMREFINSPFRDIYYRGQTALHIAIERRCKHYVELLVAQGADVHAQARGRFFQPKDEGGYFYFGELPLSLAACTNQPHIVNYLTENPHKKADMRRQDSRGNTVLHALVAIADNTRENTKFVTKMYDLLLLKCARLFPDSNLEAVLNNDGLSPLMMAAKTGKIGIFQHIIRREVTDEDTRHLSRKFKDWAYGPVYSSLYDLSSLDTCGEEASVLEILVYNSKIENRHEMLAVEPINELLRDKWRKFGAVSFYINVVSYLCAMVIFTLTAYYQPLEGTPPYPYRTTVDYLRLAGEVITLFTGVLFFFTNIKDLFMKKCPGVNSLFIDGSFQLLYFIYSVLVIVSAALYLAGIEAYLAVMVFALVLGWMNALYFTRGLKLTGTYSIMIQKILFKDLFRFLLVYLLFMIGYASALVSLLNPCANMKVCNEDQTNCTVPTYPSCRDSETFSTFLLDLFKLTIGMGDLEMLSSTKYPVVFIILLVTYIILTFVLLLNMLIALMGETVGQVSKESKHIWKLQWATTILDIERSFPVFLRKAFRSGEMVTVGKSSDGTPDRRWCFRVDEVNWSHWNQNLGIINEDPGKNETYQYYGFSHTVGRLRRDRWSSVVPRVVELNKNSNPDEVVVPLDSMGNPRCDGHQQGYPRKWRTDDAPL
Sequence of Transient receptor potential cation channel subfamily A member 1 (Mus musculus) (Q8BLA8 whole entry): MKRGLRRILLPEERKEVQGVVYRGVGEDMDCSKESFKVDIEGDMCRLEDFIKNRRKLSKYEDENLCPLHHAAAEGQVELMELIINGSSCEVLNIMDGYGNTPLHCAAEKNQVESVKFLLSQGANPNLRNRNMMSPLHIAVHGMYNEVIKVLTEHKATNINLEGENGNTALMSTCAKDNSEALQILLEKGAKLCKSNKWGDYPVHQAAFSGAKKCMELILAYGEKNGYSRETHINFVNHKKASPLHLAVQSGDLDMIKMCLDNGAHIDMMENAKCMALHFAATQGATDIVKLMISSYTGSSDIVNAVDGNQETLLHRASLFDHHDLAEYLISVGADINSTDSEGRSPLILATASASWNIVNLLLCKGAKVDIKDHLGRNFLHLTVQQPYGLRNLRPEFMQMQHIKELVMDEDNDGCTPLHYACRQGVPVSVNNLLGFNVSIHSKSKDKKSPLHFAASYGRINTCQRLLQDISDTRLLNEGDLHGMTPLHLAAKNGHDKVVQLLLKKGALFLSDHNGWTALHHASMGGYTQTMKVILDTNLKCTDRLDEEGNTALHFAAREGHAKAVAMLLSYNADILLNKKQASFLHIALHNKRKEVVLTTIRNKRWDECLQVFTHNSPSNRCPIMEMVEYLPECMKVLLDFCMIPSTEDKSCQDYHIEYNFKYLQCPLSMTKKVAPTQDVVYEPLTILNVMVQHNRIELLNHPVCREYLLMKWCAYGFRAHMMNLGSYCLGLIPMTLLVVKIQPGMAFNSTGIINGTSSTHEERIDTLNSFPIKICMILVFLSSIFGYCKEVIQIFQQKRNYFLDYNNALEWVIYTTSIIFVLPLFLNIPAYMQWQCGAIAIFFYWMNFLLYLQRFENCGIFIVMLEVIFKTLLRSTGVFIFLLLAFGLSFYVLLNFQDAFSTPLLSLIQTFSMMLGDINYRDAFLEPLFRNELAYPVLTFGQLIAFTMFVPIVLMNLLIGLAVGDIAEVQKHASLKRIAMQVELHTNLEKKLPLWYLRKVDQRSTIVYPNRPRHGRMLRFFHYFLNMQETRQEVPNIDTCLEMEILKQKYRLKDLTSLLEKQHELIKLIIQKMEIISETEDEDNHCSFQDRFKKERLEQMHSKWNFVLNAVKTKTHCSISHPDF

Compound | Activity [1] | Activity [2] | Activity [3] | Activity [4] | Activity [5] | Activity [6] | Drug metabolism [7] | Drug metabolism [8] | Activity [9] | Activity [10] | Stability [11] | Activity [12] | half-life at 50 µM [13] | Activity [14] | Activity [15] | half-life at 50 µM [16] | inhibition [17] | EC50 [18] | Activity [19] | Activity [20]
C[C@H](CCC(=O)O)C[C@H](C)C[C@H](C)C(=O)/C=C(\O)[C@H](C)C[C@H](C)C/C=C/[C@@H](C)[C@@H](O)[C@@H](C)[C@@H](O)C[C@@H]1CC[C@@](C)([C@H]2CC[C@@](C)([C@@H](C)O)O2)O1 | Active | – | – | – | – | – | – | – | – | – | – | – | – | – | – | – | – | – | – | –
O=C(O)c1ccc(/N=N/c2ccccc2)cc1 | Active | inactive | inactive | inactive | Active | inactive | Metabolite_Detected | Metabolite_Detected | inactive | Not Active | Stable | Active | 6.55 min | inactive | inactive | 1.35 min | Active | 24.8 µM | – | –
Oc1cccc(/N=N/c2ccccc2)c1 | Active | inactive | – | inactive | inactive | – | Metabolite_Detected | Metabolite_Detected | – | – | Stable | – | 2.43 min | – | – | 1.65 min | Active | 104 µM | inactive | –
Clc1cc(/N=N/c2ccccc2)ccn1 | Active | inactive | inactive | inactive | Active | inactive | Metabolite_Detected | Metabolite_Detected | inactive | Not Active | Stable | Active | 9.67 min | inactive | inactive | 5.3 min | Active | 5.55 µM | – | –
Nc1cccc(/N=N/c2ccccc2)c1 | Active | inactive | – | inactive | – | – | Metabolite_Notdetected | – | – | – | Stable | – | – | – | – | – | Active | – | – | –
Oc1ccc(/N=N/c2ccccc2)cc1 | – | – | – | – | – | – | – | – | – | – | – | – | – | – | – | – | Active | – | – | –
c1ccc(/N=N/c2ccncc2)cc1 | – | – | – | – | – | – | – | – | – | – | – | – | – | – | – | – | Active | – | – | –
Cc1cnccc1/N=N/c1ccccc1 | Active | inactive | – | inactive | inactive | – | Metabolite_Notdetected | – | – | – | Stable | – | – | – | – | 1.67 min | Active | 19.2 µM | – | –
C=CCN=C=S | – | – | – | – | – | – | – | – | – | – | – | – | – | – | – | – | – | – | – | Active
